{
  "source": "patent EP4512393A1",
  "about": "“COMBINATION OF SODIUM DICHLOROACETATE AND VALPROIC ACID SALTS FOR THE TREATMENT OF VIRAL AND BACTERIAL INFECTIONS AND INFLAMMATORY DISEASES” (Lietuvos sveikatos mokslu universitetas, priority 2023, dated 2025)",
  "origin": "cited, not measured here",
  "test_system": "leukocyte migration into the peritoneal cavity",
  "conditions": "peritonitis-induced male rat model",
  "data": [
    {"smiles": "CCCC(CCC)C(=O)O", "note": "[VPA, 2-n-propyl-pentanoic acid]", "values": [
      {"measurement": "inhibition of leukocyte migration into the peritoneal cavity", "result": 92, "unit": "%"}
    ]}
  ]
}
